What was measured:
[1] = tested on: HEK293 SuperTOPFlash reporter cells, Wnt promoter; assay: HEK CELL Wnt Assay (luciferase reporter); assay type: cell-based; conditions: for IC50: serial dilutions, with or without 50 ng/mL Wnt3a, 18 h
Method: In order to determine the effect of the compounds of Formula (I) on Wnt inhibition, an in vitro assay using HEK293 SuperTOPFlash reporter cells, with the Wnt promoter driving a luciferase reporter gene, were utilized. 40,000 HEK293 SuperTOPFlash reporter cells were seeded, per well, in a 48 well plate for 24 hours, prior to administration of serial dilutions of the compound of Formula (I) to individual wells. Serial dilutions ranging from […] to 1 nM of the compound of Formula (I) were added with or without 50 ng/mL Wnt3a (Time Biosciences) and allowed to incubate with the reporter cells for 18 hours. Reporter cells with no treatment were used as negative control.

Tankyrase 2 (TNKS2) = target: T1, Tankyrase 2 (TNKS2) (Homo sapiens, UniProt Q9H2K2); assay: TNK2 Binding Assay (Tankyrase 2 ribosylation, chemiluminescence); assay type: biochemical
T1 sequence (Q9H2K2 1-1166): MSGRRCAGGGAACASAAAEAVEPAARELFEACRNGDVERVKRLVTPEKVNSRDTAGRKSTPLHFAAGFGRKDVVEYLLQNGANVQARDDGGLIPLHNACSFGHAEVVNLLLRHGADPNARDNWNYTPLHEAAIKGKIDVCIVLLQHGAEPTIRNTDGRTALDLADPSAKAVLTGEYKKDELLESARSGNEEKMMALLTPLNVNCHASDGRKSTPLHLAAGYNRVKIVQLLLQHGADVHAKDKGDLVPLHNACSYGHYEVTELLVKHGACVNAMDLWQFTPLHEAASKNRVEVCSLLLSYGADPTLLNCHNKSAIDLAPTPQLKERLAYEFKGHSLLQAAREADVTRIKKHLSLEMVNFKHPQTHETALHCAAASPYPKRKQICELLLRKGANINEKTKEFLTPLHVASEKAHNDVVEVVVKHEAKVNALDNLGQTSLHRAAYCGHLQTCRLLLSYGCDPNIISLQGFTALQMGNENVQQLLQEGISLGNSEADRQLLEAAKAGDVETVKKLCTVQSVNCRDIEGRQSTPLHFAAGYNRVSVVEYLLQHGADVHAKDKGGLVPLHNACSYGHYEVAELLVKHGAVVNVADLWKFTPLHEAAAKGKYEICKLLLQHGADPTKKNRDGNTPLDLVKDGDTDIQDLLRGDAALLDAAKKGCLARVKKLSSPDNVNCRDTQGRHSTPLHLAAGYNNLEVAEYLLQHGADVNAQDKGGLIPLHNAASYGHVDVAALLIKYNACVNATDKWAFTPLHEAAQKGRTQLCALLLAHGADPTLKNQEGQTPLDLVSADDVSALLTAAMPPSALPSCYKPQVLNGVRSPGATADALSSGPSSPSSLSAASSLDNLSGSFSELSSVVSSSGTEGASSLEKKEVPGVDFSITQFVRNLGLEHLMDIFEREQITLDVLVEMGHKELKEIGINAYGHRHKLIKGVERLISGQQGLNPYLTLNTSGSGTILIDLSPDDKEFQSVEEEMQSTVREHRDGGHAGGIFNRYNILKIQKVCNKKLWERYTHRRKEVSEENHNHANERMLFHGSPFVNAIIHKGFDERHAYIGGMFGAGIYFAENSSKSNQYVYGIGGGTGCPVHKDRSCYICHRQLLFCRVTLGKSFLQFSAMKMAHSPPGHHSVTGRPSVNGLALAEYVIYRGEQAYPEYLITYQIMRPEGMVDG
Method: Tankyrase 2 assay (n=3) was performed with the following steps: step 1, coating a 96-well plate with 50 μL/well of histone solution; step 2, conducting ribosylation reaction; and step 3, detection.
Step 1: Coating a 96-Well Plate with 50 μL/Well of Histone Solution.
A 5× histone mixture was diluted 1:5 with PBS to make a 1× histone in PBS mixture. 50 μL of the histone mixture was added to each well and incubated at 4° C. overnight. The plate was washed three times using 200 μL PBST buffer (1×PBS containing 0.05% Tween*20 (polysorbate 20) per well. The plate was tapped onto a clean paper towel to remove the liquid. The wells were blocked by adding 200 μL of blocking buffer 3 to each well. The plate was incubated at room temperature for at least 90 minutes. The plate was washed three times with 200 μL PBST buffer. The plate was tapped onto a clean paper towel to remove the liquid.
A fresh solution of 10 mM DTT in water was prepared.
A master mix was prepared and delivered to each well (25 μL/well). Master mix delivered to each well: (2.5 μL of 10×PARP assay buffer (purchased from BPS Bioscience)+2.5 μL of PARP substrate mixture 2+17.5 μL of water+2.5 μL of 10 mM fresh DTT). The concentration of DTT in the master mix was 1 mM. 25 μL of master mix was added to each well.
1×PARP buffer with DTT was prepared. 10×PARP assay buffer was diluted to 1×PARP assay buffer containing DTT by adding 1 volume of 10×PARP assay buffer+1 volume of 10 mM DTT+8 volumes of water. The concentration of DTT in the 1×PARP assay buffer was 1 mM.
5 μL of a test inhibitor was added to each well labeled as “Test Inhibitor.” For the “Positive Control,” the PARP inhibitor, XAV939, was used. For the negative control, no inhibitor is added to the assay mix.
The Tankyrase 2 (TNKS2) enzyme on ice was thawed. The tube containing the enzyme was spun briefly to recover the full content of the tube. The amount of TNKS2 enzyme required for the assay was calculated and the enzyme was diluted to 0.5 ng/μL with 1×PARP assay buffer with DTT. 16) The final concentration of TNKS2 enzyme in the assay was 2 nM. The reaction was initiated by adding 10 μL of diluted TNKS2 enzyme to each well designated “Positive Control” and “Test Inhibitor.” To each well designated as “Blank,” 10 μL of 1×PARP assay buffer with DTT was added. The plate was incubated at room temperature for 1 hour. The plate was washed three times with 100 μL of PBST buffer and the plate was tapped onto a clean paper towel.
1) Streptavidin-HRP was diluted 1:50 in Blocking buffer (purchased from BPS Bioscience) 3.50 μL of diluted Streptavidin-RP was added to each well and incubated for 30 minutes at room temperature. The plate was washed three times with 100 μL of PBST buffer and tapped onto a clean paper towel. Just before use, 1 volume of ELISA ECL Substrate A and 1 volume of ELISA ECL Substrate B were mixed on ice; and 100 μL was added to each well. Immediately, the plate was read in a luminometer or microtiter-plate reader capable of reading chemiluminescence. The “Blank” value was subtracted from all other values.

Row | SMILES | IC50 (Tankyrase 2 (TNKS2)) | HEK CELL Wnt inhibition ([1]; @ >10,000 nM) | IC50 [1]
1 | N#Cc1ccc2c(c1)[nH]c(=O)n2[C@H]1C[C@H](c2nc3c(c(=O)[nH]2)CSCC3)C1 [Compound 2, 2-oxo-1-((1r,3r)-3-(4-oxo-3,5,7,8-tetrahydro-4H-thiopyrano[4,3-d]pyrimidin-2-yl)cyclobutyl)-2,3-dihydro-1H-benzo[d]imidazole-5-carbonitrile] |  | 60% inhibition @ >10,000 nM | 
2 | [2H]C1([2H])CSCc2c1nc(-c1ccc(C(F)(F)F)cc1)[nH]c2=O [Compound 13, 2-(4-(trifluoromethyl)phenyl)-3,5,7,8-tetrahydro-4H-thiopyrano[4,3-d]pyrimidin-4-one-8,8-d2] |  |  | 4 nM
3 | COCCOC(C)(C)c1c(F)cc(-c2nc3c(c(=O)[nH]2)CSCC3)cc1F [Compound 16, 2-(3,5-difluoro-4-(2-(2-methoxyethoxy)propan-2-yl)phenyl)-3,5,7,8-tetrahydro-4H-thiopyrano[4,3-d]pyrimidin-4-one] | 50 nM |  | 400 nM
4 | O=c1[nH]c(/C=C/c2ccc(C(F)(F)F)c(B(O)O)c2)nc2c1CSCC2 [Compound 5, (E)-(5-(2-(4-oxo-3,5,7,8-tetrahydro-4H-thiopyrano[4,3-d]pyrimidin-2-yl)vinyl)-2-(trifluoromethyl)phenyl)boronic acid] |  |  | 5000 nM
5 | O=c1[nH]c(-c2ccc(-c3ccc(Br)cc3)cc2)nc2c1CSCC2 |  |  | 100 nM
6 | N#Cc1ccc(-c2nc3c(c(=O)[nH]2)CSCC3)cc1 [Compound 43, 4-(4-oxo-3,5,7,8-tetrahydro-4H-thiopyrano[4,3-d]pyrimidin-2-yl)benzonitrile] |  |  | 1000 nM
7 | COC(=O)NCCOC(C)(C)c1ccc(-c2nc3c(c(=O)[nH]2)CSCC3)cc1C#N [Compound 39, methyl (2-((2-(2-cyano-4-(4-oxo-3,5,7,8-tetrahydro-4H-thiopyrano[4,3-d]pyrimidin-2-yl)phenyl)propan-2-yl)oxy)ethyl)carbamate] | 650 nM |  | 
8 | CC(C)(OCCO)c1c(F)cc(-c2nc3c(c(=O)[nH]2)CSCC3)cc1F [Compound 15, 2-(3,5-difluoro-4-(2-(2-hydroxyethoxy)propan-2-yl)phenyl)-3,5,7,8-tetrahydro-4H-thiopyrano[4,3-d]pyrimidin-4-one] | 90 nM |  | 

Continued, in another order:

Row | IC50 (Tankyrase 2 (TNKS2)) | SMILES | HEK CELL Wnt inhibition ([1]; @ >10,000 nM) | IC50 [1]
9 | 28 nM | O=c1[nH]c(-c2ccc3c(c2)COB3O)nc2c1CSCC2 [Compound 3, 2-(1-hydroxy-1,3-dihydrobenzo[c][1,2]oxaborol-5-yl)-7,8-dihydro-3H-thiopyrano [4,3-d]pyrimidin-4 (5H)-one] |  | 7500 nM
10 | 24 nM | O=c1[nH]c(-c2ccc(-c3ccc(B(O)O)cc3)cc2O)nc2c1CSCC2 [Compound 26, (3′-hydroxy-4′-(4-oxo-3,5,7,8-tetrahydro-4H-thiopyrano[4,3-d]pyrimidin-2-yl)-[1,1′-biphenyl]-4-yl)boronic acid] |  | 652 nM
11 | 13 nM | O=c1[nH]c(-c2ccc(-c3nc4c(c(=O)[nH]3)CSCC4)cc2)no1 [Compound 4, 3-(4-(4-oxo-3,5,7,8-tetrahydro-4H-thiopyrano[4,3-d]pyrimidin-2-yl)phenyl)-1,2,4-oxadiazol-5 (4H)-one] |  | > 10000 nM
12 | 2 nM | O=c1[nH]c(-c2ccc(-c3ccc(B(O)O)cc3O)cc2)nc2c1CSCC2 [Compound 28, (2-hydroxy-4′-(4-oxo-3,5,7,8-tetrahydro-4H-thiopyrano[4,3-d]pyrimidin-2-yl)-[1,1′-biphenyl]-4-yl)boronic acid] |  | 2 nM
13 | 12 nM | O=c1[nH]c(-c2cc(F)c(-c3ccc(Br)nc3)c(F)c2)nc2c1CSCC2 [Compound 21, 2-(4-(6-bromopyridin-3-yl)-3,5-difluorophenyl)-3,5,7,8-tetrahydro-4H-thiopyrano[4,3-d]pyrimidin-4-one] |  | 2000 nM
14 | 4 nM | O=c1[nH]c(-c2ccc(-c3ccc(B(O)O)cn3)cc2)nc2c1CSCC2 [Compound 22, (6-(4-(4-oxo-3,5,7,8-tetrahydro-4H-thiopyrano[4,3-d]pyrimidin-2-yl)phenyl)pyridin-3-yl)boronic acid] |  | 250 nM
15 | 40 nM | O=c1[nH]c(-c2ccc(-c3ccc(Br)nc3)nc2)nc2c1CSCC2 [Compound 19, 2-(6′-bromo-[2,3′-bipyridin]-5-yl)-3,5,7,8-tetrahydro-4H-thiopyrano[4,3-d]pyrimidin-4-one] |  | 2500 nM
16 | 11 nM | O=c1[nH]c(-c2cc(F)c(B(O)O)c(F)c2)nc2c1CSCC2 [Compound 14, (2,6-difluoro-4-(4-oxo-3,5,7,8-tetrahydro-4H-thiopyrano[4,3-d]pyrimidin-2-yl)phenyl)boronic acid] |  | 8000 nM
17 | 1 nM | COC(=O)NCCOC(C)(C)c1ccc(-c2ccc(-c3nc4c(c(=O)[nH]3)CSCC4)cc2)cc1 [Compound 29, methyl (2-((2-(4′-(4-oxo-3,5,7,8-tetrahydro-4H-thiopyrano[4,3-d]pyrimidin-2-yl)-[1,1′-biphenyl]-4-yl)propan-2-yl)oxy)ethyl)carbamate] |  | 100 nM
18 | 3 nM | COCCOC(C)(C)c1ccc(-c2nc3c(c(=O)[nH]2)CSCC3)cc1 [Compound 17, 2-(4-(2-(2-methoxyethoxy)propan-2-yl)phenyl)-3,5,7,8-tetrahydro-4H-thiopyrano[4,3-d]pyrimidin-4-one] |  | 60 nM
19 | 2 nM | O=c1[nH]c(-c2ccc(-c3ccc(B(O)O)c(O)c3)cc2)nc2c1CSCC2 [Compound 27, (3-hydroxy-4′-(4-oxo-3,5,7,8-tetrahydro-4H-thiopyrano[4,3-d]pyrimidin-2-yl)-[1,1′-biphenyl]-4-yl)boronic acid] |  | 36 nM
20 | 8.7 nM | O=c1[nH]c(N2CCN(c3ccc(B(O)O)cc3)CC2)nc2c1CSCC2 [Compound 41, (4-(4-(4-oxo-3,5,7,8-tetrahydro-4H-thiopyrano[4,3-d]pyrimidin-2-yl)piperazin-1-yl)phenyl)boronic acid] |  | 

Reference: patent US20260356860A1, “2-SUBSTITUTED 3,4A,5,7,8,8A-HEXAHYDRO-4H-THIOPYRANO[4,3-DJPYRIMIDIN-4-ONES FOR WOUND TREATMENT” (priority 2022, published 2026)
